Measurements as given in patent US12495798B2, “Nicotinamide compound and herbicidal composition comprising compound” (KOREA RESEARCH INSTITUTE OF CHEMICAL TECHNOLOGY, priority 2019, dated 2025).

Legend:
Assay type in all cases: in vivo
barnyard grass = test: Herbicidal activity test against upland field weeds (foliar treatment test); conditions: Echinochloa crus-galli, 50 g ai/ha, scale 0-100
Method in brief: (§1)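 Visual 0–100 control ratings relative to untreated plants, taken 14 (or 21) days after spraying foliage at 50 or 75 g a.i./ha. Spray solution: 50% acetone with 0.1% Tween-20; plants kept in greenhouse at 30±5 °C, 14 h light/10 h dark.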

black nightshade = test: as above; design: key to Foliar treatment herbicidal activity, black nightshade: 0 (no control); 100 (complete control); conditions: 50 g ai/ha, scale 0-100
Method in brief: as §1

sorghum = test: as above; conditions: Sorghum, 50 g ai/ha, scale 0-100
Method in brief: as §1

corn = test: Phytotoxicity test for field crops (soil treatment test); design: key: 0 (no harm); 9 (complete withered)
Experimental: (§2) Experimental Example 4: Phytotoxicity Test for Field Crops (Soil Treatment Test)
(§3) Soil treatment was performed for sown crops and weeds in a square plastic pot having a surface area of 50 cm^2 filled with sterilized horticultural soil (pH 6.1, organic material 1.0%, clay 21%, silt 17%, sand 52%). As a fertilizer per pot, 0.5 g of horticultural mixed fertilizer (N:P:K=17:21:17) was treated by mixing with soil. Five kinds of crops such as rice, wheat, corn, soybean, and cotton were sown in each pot. One day after sowing, test compound solutions were made by diluting with the diluent (33% acetone, 0.1% Tween-20) so that the final treatment amount of the test compounds was 19˜300 g a.i./ha. The prepared test compound solutions were treated using a spray booth (SB6-016) at a treatment amount of 100 ml per 1 m^2 of treatment area. The treated crops were managed in greenhouse conditions (average temperature 30±5° C., light/dark=14/10 hours). External symptoms and phytotoxicity were visually investigated 10 and 20 days after treatment. In the evaluation of the phytotoxicity for the crop, the grade of 0 (no harm) to 9 (complete withered) was used. The results of Table 10 were obtained by evaluating phytotoxicity value to the untreated control.

soybean = test: as above; design: key: 0 (no harm); 9 (complete withered)
Experimental: as §2, §3

rice = test: as above; design: key: 0 (no harm); 9 (complete withered)
Experimental: as §2, §3

wheat = test: as above; design: key: 0 (no harm); 9 (complete withered)
Experimental: as §2, §3

cotton = test: as above; design: key: 0 (no harm); 9 (complete withered)
Experimental: as §2, §3

quack grass = test: Herbicidal activity test against upland field weeds (foliar treatment test); design: key to Foliar treatment herbicidal activity, quack grass: 0 (no control); 100 (complete control); conditions: 50 g ai/ha, scale 0-100
Method in brief: as §1

[1] = 50 g ai/ha, Corn (10 days after treatment)
[2] = 50 g ai/ha, Corn (20 days after treatment)
[3] = 100 g ai/ha, Corn (10 days after treatment)
[4] = 100 g ai/ha, Corn (20 days after treatment)
[5] = 50 g ai/ha, Soybean (10 days after treatment)
[6] = 50 g ai/ha, Soybean (20 days after treatment)
[7] = 100 g ai/ha, Soybean (10 days after treatment)
[8] = 100 g ai/ha, Soybean (20 days after treatment)
[9] = 50 g ai/ha, Rice (10 days after treatment)
[10] = 50 g ai/ha, Rice (20 days after treatment)
[11] = 100 g ai/ha, Rice (10 days after treatment)
[12] = 100 g ai/ha, Rice (20 days after treatment)
[13] = 50 g ai/ha, Wheat (10 days after treatment)
[14] = 50 g ai/ha, Wheat (20 days after treatment)
[15] = 100 g ai/ha, Wheat (10 days after treatment)
[16] = 50 g ai/ha, Cotton (10 days after treatment)
[17] = 50 g ai/ha, Cotton (20 days after treatment)
[18] = 100 g ai/ha, Cotton (10 days after treatment)
[19] = 100 g ai/ha, Cotton (20 days after treatment)
[20] = 100 g ai/ha, Wheat (20 days after treatment)

| SMILES | pest or weed control at 50 g/ha (barnyard grass) [%] | Foliar treatment herbicidal activity, black nightshade (black nightshade) | plant injury at 50 g/ha (sorghum) [%] | Soil treatment phytotoxicity, Corn (corn; [1]) | Soil treatment phytotoxicity, Corn (corn; [2]) | Soil treatment phytotoxicity, Corn (corn; [3]) | Soil treatment phytotoxicity, Corn (corn; [4]) | Soil treatment phytotoxicity, Rice (rice; [9]) | Soil treatment phytotoxicity, Rice (rice; [10]) | Soil treatment phytotoxicity, Rice (rice; [11]) | Soil treatment phytotoxicity, Rice (rice; [12]) | Soil treatment phytotoxicity, Wheat (wheat; [13]) | Soil treatment phytotoxicity, Wheat (wheat; [14]) | Soil treatment phytotoxicity, Wheat (wheat; [15]) | Soil treatment phytotoxicity, Cotton (cotton; [16]) | Soil treatment phytotoxicity, Cotton (cotton; [17]) | Soil treatment phytotoxicity, Cotton (cotton; [18]) | Soil treatment phytotoxicity, Cotton (cotton; [19]) | Foliar treatment herbicidal activity, quack grass (quack grass) | Soil treatment phytotoxicity, Wheat (wheat; [20]) | also measured |
| --- | --- | --- | --- | --- | --- | --- | --- | --- | --- | --- | --- | --- | --- | --- | --- | --- | --- | --- | --- | --- | --- |
| CON(Cc1nnn(C)n1)Cc1nc(C(F)(F)F)ccc1C(=O)Nc1nnnn1C [Compound No. 2-97, 2-((methoxy((2-methyl-2H-tetrazol-5-yl)methyl)amino)methyl)-N-(1-methyl-1H-tetrazol-5-yl)-6-(trifluoromethyl)nicotinamide] | 95 | 100 | 50 | 0 | 0 | 1 | 0 | 7 | 9 | 9 | 9 | 0 | 0 | 0 | 1 | 7 | 4 | 8 | 0 | – | Soil treatment phytotoxicity, Soybean (soybean; [5]): 0; Soil treatment phytotoxicity, Soybean (soybean; [6]): 0; Soil treatment phytotoxicity, Soybean (soybean; [7]): 0; Soil treatment phytotoxicity, Soybean (soybean; [8]): 0 |
| Cn1nnc(CSCc2nc(C(F)(F)F)ccc2C(=O)N(c2nnnn2C)S(C)(=O)=O)n1 [Compound No. 2-110, N-(1-methyl-1H-tetrazol-5-yl)-2-((((2-methyl-2H-tetrazol-5-yl)methyl)thio)methyl)-N-(methylsulfonyl)-6-(trifluoromethyl)nicotinamide] | 20 | 100 | 20 | 0 | 0 | 0 | 0 | 0 | 0 | 0 | 0 | 0 | 0 | 0 | 0 | 0 | 0 | 0 | 0 | 0 | Soil treatment phytotoxicity, Soybean (soybean; [6]): 0; Soil treatment phytotoxicity, Soybean (soybean; [8]): 0 |
| Cc1nc(COCc2nc(C(F)(F)F)ccc2C(=O)Nc2nnnn2C)nn1C [Compound No. 2-116, 2-(((1,5-dimethyl-1H-1,2,4-triazol-3-yl)methoxy)methyl)-N-(1-methyl-1H-tetrazol-5-yl)-6-(trifluoromethyl)nicotinamide] | 98 | 100 | 40 | 1 | 4 | 1 | 3 | 0 | 3 | 0 | 2 | 0 | 2 | 0 | 1 | 3 | 1 | 2 | 0 | 0 | – |
| Cc1nc(COCc2nc(C(F)(F)F)ccc2C(=S)Nc2nnnn2C)nn1C [Compound No. 2-117, 2-(((1,5-dimethyl-1H-1,2,4-triazol-3-yl)methoxy)methyl)-N-(1-methyl-1H-tetrazol-5-yl)-6-(trifluoromethyl)pyridin-3-carbothioamide] | 98 | 100 | 40 | 1 | 3 | 2 | 2 | 0 | 2 | 0 | 3 | 0 | 0 | 0 | 0 | 9 | 0 | 9 | 0 | 0 | – |
| Cn1nc(COCc2nc(C(F)(F)F)ccc2C(=O)Nc2nnnn2C)nc1C#N [Compound No. 2-134, 2-(((5-cyano-1-methyl-1H-1,2,4-triazol-3-yl)methoxy)methyl)-N-(1-methyl-1H-tetrazol-5-yl)-6-(trifluoromethyl)nicotinamide] | 98 | 100 | 10 | 0 | 0 | 0 | 0 | 1 | 1 | 5 | 4 | 0 | 0 | 0 | 0 | 1 | 0 | 2 | – | 0 | Soil treatment phytotoxicity, Soybean (soybean; [5]): 0; Soil treatment phytotoxicity, Soybean (soybean; [6]): 0; Soil treatment phytotoxicity, Soybean (soybean; [7]): 0; Soil treatment phytotoxicity, Soybean (soybean; [8]): 0; pest or weed control at 50 g/ha (quack grass): 10% |
| Cn1nc(COCc2nc(C(F)(F)F)ccc2C(=O)Nc2nnnn2C)nc1Br [Compound No. 2-136, 2-(((5-bromo-1-methyl-1H-1,2,4-triazol-3-yl)methoxy)methyl)-N-(1-methyl-1H-tetrazol-5-yl)-6-(trifluoromethyl)nicotinamide] | 70 | – | 20 | 0 | 0 | 0 | 0 | 3 | 4 | 4 | 7 | 0 | 0 | 0 | 0 | 0 | 1 | 0 | 0 | 0 | pest or weed control at 50 g/ha (black nightshade; Solanum nigrum): 95%; Soil treatment phytotoxicity, Soybean (soybean; [5]): 0; Soil treatment phytotoxicity, Soybean (soybean; [6]): 0 |
